The subject of experiment [1] is Ristocetin-Induced Platelet Aggregation. The experiment is described as follows: Platelet aggregation inhibitory activity: ristocetin-induced platelet aggregation in platelet rich plasma. The experiment is classed as cell-based. The settings on record: Cavia porcellus, guinea pig PRP. Here is the method:
(§1) A blood of a guinea pig was sampled by using a 1/10 volume of a 3.8% sodium citrate as a platelet aggregation inhibitor, and a platelet rich plasma (PRP) was separated by centrifuging the blood sample at 1100 rpm for 10 min. After fractionating the PRP in the upper layer, the lower layer was centrifuged at 3000 rpm for 10 min to fractionate the platelet poor plasma (PPP). To 100 μL of PRP, a 1 μL solution of each compound was added, and after still standing at 37° C. for 1 min, the mixture was stirred at 37° C. for 1 min by a stirrer. Then, 11 μL of collagen, ristocetin, or ADP was added thereto to induce the platelet aggregation. The platelet aggregation ability was measured by using the mCM hematolaser 313M (L-M-S Inc.). Based on the assumption that a light transmittance of PPP corresponds to a 100% coagulation value, an aggregation rate at each concentration of the compound was determined, then, an IC50 value was calculated therefrom.
[Platelet Aggregation Inhibitory Activities: Ristocetin-Induced Platelet Aggregation]

The test system of experiment [2] is Collagen-Induced Platelet Aggregation. The experiment in a line: Platelet aggregation inhibitory activity: collagen-induced platelet aggregation in platelet rich plasma. The experiment is classed as cell-based. The settings on record: Cavia porcellus, guinea pig PRP. Here is the method: as §1
[Platelet Aggregation Inhibitory Activities: Collagen-Induced Platelet Aggregation]

For orientation: IC50 means the concentration at which inhibition is half-maximal. Low readings indicate greater potency, high ones weaker potency. `COc1ccc(-n2c(-c3cc(C)on3)nc3cc(C(F)(F)F)ccc32)nn1` [Example 72, 2-(5-methylisoxazol-3-yl)-1-(6-methoxypyridazin-3-yl)-5-(trifluoromethyl)-1H-benzimidazole]: the half-inhibitory concentration (IC50) was 130 nM in experiment [1] and 180 nM in experiment [2].

Consider `CNc1ccc(-n2c(-c3ccc(C#N)cn3)nc3cc(C(F)(F)F)cnc32)cn1` [Example 150, 6-{3-[6-(methylamino)pyridin-3-yl]-6-(trifluoromethyl)-3H-imidazo[4,5-b]pyridin-2-yl]nicotinonitrile], for which the IC50 in experiment [1] and in experiment [2] was 205 nM throughout.

On to `COc1ccc(-n2c(-c3nccs3)nc3cc(C(F)(F)F)ccc32)nn1` [Example 54, 1-(6-methoxypyridazin-3-yl)-2-(1,3-thiazol-2-yl)-5-(trifluoromethyl)-1H-benzimidazole], for which the IC50 came to 100 nM in experiment [1] and 190 nM in experiment [2].

With `COc1ccc(-n2c(-c3ccccn3)nc3cc(OC(F)F)cnc32)cn1` [Example 146, 6-(difluoromethoxy)-3-(6-methoxypyridin-3-yl)-2-pyridin-2-yl-3H-imidazo[4,5-b]pyridine], the half-maximal inhibitory concentration (IC50) in experiment [1] was 66 nM; in experiment [2], 78 nM.

As for `COc1cnc(-n2c(-c3cocn3)nc3cc(C(F)(F)F)cnc32)cn1` [Example 151, 3-(5-methoxypyrazine-2-yl)-2-(1,3-oxazol-4-yl)-6-(trifluoromethyl)-3H-imidazo[4,5-b]pyridine], the IC50 in experiment [1] and in experiment [2] was 24 nM in each case.

Regarding `FC(F)(F)c1ccc2c(c1)nc(-c1ccccn1)n2-c1ccccn1` [Example 12, 1,2-Dipyridin-2-yl-5-(trifluoromethyl)-1H-benzimidazole], the IC50 in experiment [1] came out at 190 nM; in experiment [2] it was 230 nM.

Take `COc1ccc(-n2c(-c3cc(C)ccn3)nc3cc(C(F)(F)F)ccc32)nn1` [Example 58, 1-(6-methoxypyridazin-3-yl)-2-(4-methylpyridin-2-yl)-5-(trifluoromethyl)-1H-benzimidazole]: the IC50 in experiment [1] was 280 nM; in experiment [2], 170 nM.

With `COc1ccc(-n2c(-c3ccccn3)nc3cc(OC(C)C)cnc32)cn1` [Example 145, 6-isopropoxy-3-(6-methoxypyridin-3-yl)-2-pyridin-2-yl-3H-imidazo[4,5-b]pyridine], the figures for the IC50 in experiment [1] and in experiment [2] were 106 nM and 74 nM, respectively.

As to `CCc1ccc(-c2nc3cc(C(F)(F)F)ccc3n2-c2ccc(OC)nn2)nc1` [Example 56, 2-(5-ethylpyridin-2-yl)-1-(6-methoxypyridazin-3-yl)-5-(trifluoromethyl)-1H-benzimidazole], the IC50 in experiment [1] was found to be 28 nM; in experiment [2] it was 47 nM.

As to `COc1ccc(-n2c(-c3ccccn3)nc3cc(OC(C)C(F)(F)F)cnc32)cn1` (centres unmarked) [Example 176, 3-(6-methoxypyridin-3-yl)-2-pyridin-2-yl-6-(2,2,2-trifluoro-1-methylethoxy)-3H-imidazo[4,5-b]pyridine], the IC50 is 63 nM in experiment [1] and 55 nM in experiment [2].

In the case of `COc1ccc(-n2c(-c3csc(C)n3)nc3cc(C(F)(F)F)cnc32)cn1` [Example 110, 3-(6-methoxypyridin-3-yl)-2-(2-methyl-1,3-thiazol-4-yl)-6-(trifluoromethyl)-3H-imidazo[4,5-b]pyridine], the values for the IC50 in experiment [1] and in experiment [2] were 120 nM and 130 nM, respectively.

Turning to `COc1cnc(-n2c(-c3ccccn3)nc3cc(C(F)(F)F)cnc32)cn1` [Example 125, 3-(5-methoxypyrazine-2-yl)-2-pyridin-2-yl-6-(trifluoromethyl)-3H-imidazo[4,5-b]pyridine], the IC50 in experiment [1] was 27 nM; in experiment [2], 29 nM.

Consider `CSc1ccc(-n2c(-c3ccccn3)nc3cc(C(F)(F)F)ccc32)nn1` [Example 67, 1-[6-(methylthio)pyridazin-3-yl]-2-pyridin-2-yl-5-(trifluoromethyl)-1H-benzimidazole], for which the figures for the IC50 in experiment [1] and in experiment [2] were 230 nM and 170 nM, respectively.

Regarding `COc1ccc(-n2c(-c3cocn3)nc3cc(C(F)(F)F)cnc32)cn1` [Example 107, 3-(6-methoxypyridin-3-yl)-2-(1,3-oxazol-4-yl)-6-(trifluoromethyl)-3H-imidazo[4,5-b]pyridine], the IC50 in experiment [1] stood at 35 nM; in experiment [2], 66 nM.

On to `COc1ccc(-n2c(-c3cnn(C)c3)nc3cc(C(F)(F)F)ccc32)nn1` [Example 15, 1-(6-methoxypyridazin-3-yl)-2-(1-methyl-1H-pyrazol-4-yl)-5-(trifluoromethyl)-1H-benzimidazole], for which the IC50 came to 150 nM in experiment [1] and 280 nM in experiment [2].

For the molecule `COc1ccc(-n2c(-c3ccc(Cl)cn3)nc3cc(C(F)(F)F)cnc32)cn1` [Example 159, 2-(5-chloropyridin-2-yl)-3-(6-methoxypyridin-3-yl)-6-(trifluoromethyl)-3H-imidazo[4,5-b]pyridine], the IC50 in experiment [1] and in experiment [2] was 28 nM in each case.

Take `COc1ccc(-n2c(-c3coc(C)n3)nc3cc(OC(F)(F)F)ccc32)nn1` [Example 158, 1-(6-methoxypyridazin-3-yl)-2-(2-methyl-1,3-oxazol-4-yl)-5-(trifluoromethoxy)-1H-benzimidazole]: the IC50 in experiment [1] and in experiment [2] was 60 nM in each case.

Consider `COc1ccc(-n2c(-c3c[nH]cn3)nc3cc(C(F)(F)F)cnc32)cn1` [Example 11, 2-(1H-Imidazol-4-yl)-3-(6-methoxypyridin-3-yl)-6-(trifluoromethyl)-3H-imidazo[4,5-b]pyridine], for which the IC50 in experiment [1] turned out to be 57 nM; in experiment [2], 130 nM.

As for `CCCOc1cnc2c(c1)nc(-c1ccccn1)n2-c1ccc(OC)nc1` [Example 173, 3-(6-methoxypyridin-3-yl)-6-propoxy-2-pyridin-2-yl-3H-imidazo[4,5-b]pyridine], the results for the IC50 in experiment [1] and in experiment [2] were 85 nM and 77 nM, respectively.

In the case of `COc1ccc(-n2c(-c3csc(C)n3)nc3cc(C(F)(F)F)ccc32)nn1` [Example 94, 1-(6-methoxypyridazin-3-yl)-2-(2-methyl-1,3-thiazol-4-yl)-5-(trifluoromethyl)-1H-benzimidazole], the values for the IC50 in experiment [1] and in experiment [2] were 100 nM and 190 nM, respectively.

Take `COc1cnc(-n2c(-c3ccc(F)cn3)nc3cc(C(F)(F)F)cnc32)cn1` [Example 144, 2-(5-fluoropyridin-2-yl)-3-(5-methoxypyrazine-2-yl)-6-(trifluoromethyl)-3H-imidazo[4,5-b]pyridine]: the IC50 in experiment [1] was found to be 22 nM; in experiment [2] it was 30 nM.

Regarding `COc1ccc(-n2c(-c3ccccn3)nc3cc(OCC(C)C)cnc32)cn1` [Example 174, 6-isobuthoxy-3-(6-methoxypyridin-3-yl)-2-pyridin-2-yl-3H-imidazo[4,5-b]pyridine], the figures for the IC50 in experiment [1] and in experiment [2] were 87 nM and 84 nM, respectively.

Take `COc1ccc(-n2c(-c3cnc(C#N)cn3)nc3cc(C(F)(F)F)cnc32)cn1` [Example 8, 5-[3-(6-methoxypyridin-3-yl)-6-(trifluoromethyl)-3H-imidazo[4,5-b]pyridin-2-yl]pyrazine-2-carbonitrile]: the IC50 was found to be 95 nM in experiment [1] and 150 nM in experiment [2].

As to `COc1ccc(-n2c(-c3ncccc3C#N)nc3cc(C(F)(F)F)ccc32)nn1` [Example 81, 2-[1-(6-methoxypyridazin-3-yl)-5-(trifluoromethyl)-1H-benzimidazole-2-yl]nicotinonitrile], the IC50 stood at 500 nM in experiment [1] and 220 nM in experiment [2].

For the molecule `COc1ccc(-n2c(-c3ccc(OC)nn3)nc3cc(C(F)(F)F)ccc32)cn1` [Example 9, 2-(6-methoxypyridazin-3-yl)-1-(6-methoxypyridin-3-yl)-5-(trifluoromethyl)-1H-benzimidazole], the figures for the IC50 in experiment [1] and in experiment [2] were 140 nM and 150 nM, respectively.

Consider `COc1ccc(-n2c(-c3ccc(F)cn3)nc3cc(C(F)(F)F)ccc32)cn1` [Example 21, 2-(5-fluoropyridin-2-yl)-1-(6-methoxypyridin-3-yl)-5-(trifluoromethyl)-1H-benzimidazole], for which the IC50 was 390 nM in experiment [1] and 130 nM in experiment [2].

For the molecule `COc1ccc(-n2c(-c3cscn3)nc3cc(C(F)(F)F)ccc32)nn1` [Example 89, 1-(6-methoxypyridazin-3-yl)-2-(1,3-thiazol-4-yl)-5-(trifluoromethyl)-1H-benzimidazole], the IC50 came out at 70 nM in experiment [1] and 53 nM in experiment [2].

In the case of `COc1cnc(-n2c(-c3coc(C)n3)nc3cc(C(F)(F)F)cnc32)cn1` [Example 152, 3-(5-methoxypyrazine-2-yl)-2-(2-methyl-1,3-oxazol-4-yl)-(trifluoromethyl)-3H-imidazo[4,5-b]pyridine], the IC50 in experiment [1] and in experiment [2] was 86 nM throughout.

For `COc1ccc(-n2c(-c3cscn3)nc3cc(C(F)(F)F)cnc32)cn1` [Example 109, 3-(6-methoxypyridin-3-yl)-2-(1,3-thiazol-4-yl)-6-(trifluoromethyl)-3H-imidazo[4,5-b]pyridine], the IC50 in experiment [1] amounted to 23 nM; in experiment [2], 95 nM.

Consider `COc1ccc(-n2c(-c3ccccc3)nc3cc(C(F)(F)F)ccc32)cn1` [Example 18, 1-(6-methoxypyridin-3-yl)-2-phenyl-5-(trifluoromethyl)-1H-benzimidazole], for which the IC50 in experiment [1] is 120 nM; in experiment [2], 490 nM.

As for `COc1ccc(-n2c(-c3ncoc3C)nc3cc(C(F)(F)F)cnc32)cn1` [Example 126, 3-(6-methoxypyridin-3-yl)-2-(5-methyl-1,3-oxazol-4-yl)-6-(trifluoromethyl)-3H-imidazo[4,5-b]pyridine], the IC50 in experiment [1] is 90 nM; in experiment [2], 194 nM.

The record behind these values is US9533983B2, “Antiplatelet agent” (Mitsubishi Tanabe Pharma Corporation, priority 2009, dated 2017).
